Read-outs that look alike come from different tables or passages of the source.
Columns and labels:
Format in all cases: cell-based, human
[1] = test system: SKOV3 (Ovarian adenocarcinoma); experiment: In vitro cytotoxicity, microculture tetrazolium (MTT) assay, SKOV3
Method: (§1) In Vitro Cytotoxicity--Microculture Tetrazolium Assay
(§2) The microculture tetrazolium assay was used to test in vitro cytotoxicity. This assay is described in Plumb, J. A. et al., 1989 Cancer Research 49, 4435-4440, which is herein incorporated by reference. The cytotoxicity of compounds towards tumor cells is measured in vitro using the assay. This assay method is based upon the ability of live, but not dead cells to reduce the yellow water soluble dye 3-(4;5-dimethylthiazol-2-yl)-2,5-diphenyltetrazolium bromide (MTT) to its water insoluble purple formazan product.
(§3) Human Tumor Cell lines, used were:
SKOV3 (Ovarian adenocarcinoma)--provided by Dr. V. Ling,
(§4) The cells were maintained in exponential growth in culture in minimal essential media (MEM) supplemented with non-essential amino acids, and containing 15% (v/v) fetal bovine serum, 5 mM L-glutamine, 1 mM sodium pyruvate, and 0.1 U/ml insulin. All cell lines were grown at 37° C. in an atmosphere of 5% CO2 in air.
(§5) Test compounds: 20 mM in DMSO and diluted to a final concentration of 200 μM in culture medium before use.
(§6) The following is the generic description of the assay method. It should be noted that although the conditions described work well with the cells listed above, the initial plating density and the MTT concentration used should be verified for each new cell line used to test compounds.
(§7) For each assay, doxorubicin is included as an inter-assay standard. This allows us to monitor the behaviour of the assay in general, and in particular, to check that the SKVLB line has maintained its resistant phenotype.
(§8) The plate layout is done in the following manner: The assays are carried out in 96-well (8 well×12 well) microtiter plates. Serial dilutions of the compound are tested along the length of the plate. A 1:3 serial dilution of compound in culture medium covers a concentration range from 100 μM to 1.7 nM. Each concentration of compound is tested in quadruplet, allowing two compounds to be tested per plate. Wells containing no cells (blank) and cells with no test compound (control) are included on each plate.
(§9) Cells are plated out in 100 μl of culture medium in the microtiter plates at a density of around 1,500-4,000 cells per well. The plates are incubated overnight to allow the cells to become adherent after which the test compound is added (100 μl of appropriate dilution per well). The cells are incubated with test compound at 37° C. for 48 h after which the compound is replaced with fresh medium. After a further 48 h incubation at 37° C., 50 μl of MTT solution (2 mg/ml) is added to each well. The plates are incubated in the dark for 4 h at 37° C. after which the medium is removed. The MTT formazan product is extracted from the cells by the addition of 200 μl DMSO followed by 50 μl of Sorensen's buffer. The plates are shaken briefly and the absorbance at 570 nm is read using a Molecular Devices UV max plate reader. Curves are fit to the MTT assay data using a four parameter logistic equation, and the data are normalized to fit a 0% to 100% survival scale.

[2] = test system: SKVLB (Ovarian; multidrug resistant); experiment: In vitro cytotoxicity, microculture tetrazolium (MTT) assay, SKVLB; conditions: for IC50: SKVLB, multidrug resistant, read-out: IC50; for VLB/OV3: ratio SKVLB / SKOV3
Summary of the method: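 Multidrug-resistant ovarian SKVLB cells exposed 48 h at 37 °C to 1:3 serial dilutions (100 μM–1.7 nM), then 48 h in fresh medium. MTT reduction read at 570 nm after DMSO extraction; four-parameter logistic fit normalized to 0–100% survival.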

[3] = test system: T47D (Ductal carcinoma of breast); experiment: In vitro cytotoxicity, microculture tetrazolium (MTT) assay, T47D
Method: as §1, §2, §3
T47D (Ductal carcinoma of breast)--ATCC catalog #HTB-133.
as §4, §5, §6, §7, §8, §9

Lox (Melanoma) = experiment: In vitro cytotoxicity, microculture tetrazolium (MTT) assay, Lox
Method: as §1, §2, §3
Lox (Melanoma)--Southern Research Institute.
as §4, §5, §6, §7, §8, §9

[4] = test system: HT 29 (Colon adenocarcinoma); experiment: In vitro cytotoxicity, microculture tetrazolium (MTT) assay, HT 29
Method: as §1, §2, §3
HT 29 (Colon adenocarcinoma) ATCC catalog #HTB-38.
as §4, §5, §6, §7, §8, §9

[5] = Homo sapiens, SK-OV-3, SKOV3, read-out: IC50
[6] = Homo sapiens, HT-29, HT29, read-out: IC50

Compound	IC50 ([1]; SKOV3, read-out: IC50) [nM]	IC50 [2] [nM]	VLB/OV3 [2]	IC50 ([3]; read-out: IC50) [nM]	IC50 (Lox (Melanoma); read-out: IC50) [nM]	IC50 ([4]; HT29, read-out: IC50) [nM]	IC50 [1, 5] [nM]	IC50 ([2]; Homo sapiens) [nM]	IC50 ([3]; Homo sapiens, read-out: IC50) [nM]	IC50 (Lox (Melanoma); Homo sapiens, read-out: IC50) [nM]	IC50 [4, 6] [nM]	IC50 ([1]; Homo sapiens, SK-OV-3) [nM]	IC50 ([3]; Homo sapiens) [nM]	IC50 (Lox (Melanoma); Homo sapiens) [nM]	IC50 ([4]; Homo sapiens, HT-29) [nM]
CC(=O)C1CC2=C(C(=O)c3ccccc3C2=O)C(OC2CC(NC(=O)C(F)(F)F)C(NC(=O)C(F)(F)F)C(C)O2)O1 [BCH2104, (1R,3S,1'S) and (1S,3R,1'S)-Methyl-(1-[2',3',4',6'-tetradeoxy-3',4'-bis-trifluoroacetamido-L-arabinohexopyranose]-5,10-dioxo-3,4,5,10-tetrahydronaphthaleno-[2,3-c]pyran-3-yl) ketone]	210	1100	5.05	613	240	171									
CC(=O)OC1C(C)OC(OC2OC(C(C)=O)CC3=C2C(=O)c2ccccc2C3=O)C(I)C1OC(C)=O (mixture of isomers) [BCH2065, (1'S,1R,1S) and (1'S,1S,3R)-methyl-(1-[2',6'-dideoxy-3',4'-diacetoxy-2'-iodo-L-arabino-hexopyranose]-5,10-dioxo-3,4,5,10-tetrahydronaphtho-[2,3-c]-pyran-3-yl) ketone]	1540	6100	4	2200	1400	3420									
CC(=NO)[C@@H]1CC2=C(C(=O)c3ccccc3C2=O)[C@@H](O[C@H]2C[C@H](NC(=O)C(F)(F)F)[C@H](O)[C@H](C)O2)O1 [BCH2115, (1'S,1R,3S)-3 (oximoethyl)-5,10-dioxo-1 (2,3,6-trideoxy-3-trifluoroacetamido-L-lyxohexopyranose)-3,4,5,10-tetrahydro-1H-naphtho-(2,3-c)-pyran]			> 50				2300	> 100000	5300	4000	5600				
CC(=O)C1CC2=C(C(=O)c3ccccc3C2=O)C(OC[C@@H]2CCCN2C(=O)OC(C)(C)C)O1 (mixture of isomers) [BCH2067, (1S,2'S,3R) and (1R,2'S,3S)-methyl-(1-[O-N-BOC-prolinol]-5,10-dioxo-3,4,5,10-tetrahydro-1H-naphtho [2,3-C]pyran-3-yl) ketone]	1200	2240	2	540	1100	323									
CC(=O)C1CC2=C(C(=O)c3ccccc3C2=O)C(OC2CC(NC(=O)C(F)(F)F)C(NC(=O)C(F)(F)F)C(C)O2)O1 [BCH2102, (1R,3S,1'S) and (1S,3R,1'S)-Methyl-(1-[2',3',4',6'-tetradeoxy-3',4'-bis-trifluoroacetamido-L-arabinohexopyranose]-5,10-dioxo-3,4,5,10-tetrahydronaphthaleno-[2,3-c]pyran-3-yl) ketone]	130	723	5.65	300	186	150									
COC1OC(C(=O)NCCCn2ccnc2)=CC2=C1C(=O)c1ccccc1C2=O (stereo not shown) [BCH2157, (3-N-hydrochloroimidazolylpropyl)-1-methoxy-5,10-dioxo-5,10-dihydro-1H-naphtho-[2,3-c]-pyran-3-carboxamide]			18.13				187	3390	233	15.5	1230				
C=CCC1CC2=C(C(=O)c3ccccc3C2=O)C(OC2CC(NC(=O)C(F)(F)F)C(O)C(C)O2)O1 (stereo not shown) [BCH1648]	51.9	315	6.07	360	138	309									
COc1cccc2c1C(=O)c1c(O)c3c(c(O)c1C2=O)C[C@@](O)(C(=O)CO)C[C@@H]3O[C@H]1C[C@H](N)[C@H](O)[C@H](C)O1 [Adriamycin, reference compound]												12	70	34	90
CC(=O)C1CC2=C(C(=O)c3ccccc3C2=O)C(OC2CC(NC(=O)C(F)(F)F)C(O)C(C)O2)O1 (stereo not shown) [BCH2144]	21400	16100	0.75	7220	3280	5930									
CC(=O)[C@@H]1CC2=C(C(=O)c3ccccc3C2=O)[C@H](OC2CCC(NC(=O)N(CCCl)N=O)CC2)O1 (mixture of isomers) [BCH2114, (1R,3S) and (1S,3R)-3-aceto-5,10-dioxo-1 (4-chloroethylnitrosoureido cyclohexyl-oxy)-3,4,5,10-tetrahydro-1H-naphtho-(2,3-c)-pyran]	472	2040	4.32	655	373	257									
CCC1CC2=C(C(=O)c3ccccc3C2=O)C(OC2CC(OC(C)=O)C(OC(C)=O)C(C)O2)O1 (mixture of isomers) [BCH1607, (1'S,1S,3S) and (1'S,1R,3R)-5,10-dioxo-3-ethyl-1-(2',3',4',6'-tetradeoxy-3',4'-diacetoxy-L-lyxohexo-pyranose)-3,4,5,10-tetrahydro-1H-naphtho [2,3-C] pyran]	7260	19800	2.73	14700	8970	21600									
CC(=O)[C@H]1CC2=C(C(=O)c3ccccc3C2=O)[C@H](O[C@H]2C[C@H](NC(=O)C(F)(F)F)[C@H](OC(=O)CBr)[C@H](C)O2)O1 [BCH2105, (1'-S,1-S,3-R)-methyl-(1-[2',3',4',6' tetradeoxy-3'-trifluoroacetamido-4'-O-(2-bromo-acetyl)-L-lyxopyranose]-5,10-dioxo-3,4,5,10 tetrahydronaphtho-[2,3-c]pyran-3-yl) ketone]	3	370	123	19	25	6.9									
CC(=O)C1CC2=C(C(=O)c3ccccc3C2=O)C(O[C@H]2C[C@H](O)[C@H](O)[C@H](C)O2)O1 (mixture of isomers) [BCH2117, (1'S,1S,3R) and (1'S,1R,3S)-methyl-(1-[dideoxy-2',6'-dihydroxy-3',4'-L-lyxohexopyranose]-5,10-dioxo-3,4,5,10-tetrahydronaphtho-[2,3-c]-pyran-3-yl) ketone]	9.5	332	35.13	37.4	73	30									
(1S,2'S,3R) and (1R,2'S,3S)-methyl-(1-[O-prolinol]-3,4,5,12-tetrahydronaphtho-[2,3-C] pyran-3-yl) ketone hydrochloride salt [BCH1658]	233	1470	6.31	494	316	661									
Methyl-(6-hydroxy-5,10-dioxo-3,4,5,10-tetrahydronaphtho-[2,3-c]-pyran-3-yl)ketone and methyl-(9-hydroxy-5,10-dioxo-3,4,5,10-tetrahydronaphtho-[2,3-c]-pyran-3-yl) ketone [BCH2062]	810	842	1.04	776	354	1140									
C=CC[C@H]1CC2=C(C(=O)c3ccccc3C2=O)[C@@H](OC2C[C@H](NC(=O)C(F)(F)F)[C@H](O)[C@H](C)O2)O1 (stereo partly drawn) [BCH1649, (1'-S,1-R,3-S)-3-([2',3',6'-trideoxy-3'-trifluoroacetamido-4'-hydroxy-L-lyhohexopyranose]-5,10-dioxo-3,4,5,10-tetrahydronaphtho-[2,3-c]-pyran-3-yl)-propene]	110	459	4.17	380	217	331									
